Assay results as given in BindingDB's records for doi:10.1038/nchembio.1629 (George Washington University, 2014).

Key:
[1] = biological target: T1, Serine/threonine-protein kinase haspin [465-798] (Homo sapiens, UniProt Q8TF76); assay: ITC; conditions: pH 7.5; 15 °C
T1 construct: 465-798
T1 sequence (Q8TF76 whole entry): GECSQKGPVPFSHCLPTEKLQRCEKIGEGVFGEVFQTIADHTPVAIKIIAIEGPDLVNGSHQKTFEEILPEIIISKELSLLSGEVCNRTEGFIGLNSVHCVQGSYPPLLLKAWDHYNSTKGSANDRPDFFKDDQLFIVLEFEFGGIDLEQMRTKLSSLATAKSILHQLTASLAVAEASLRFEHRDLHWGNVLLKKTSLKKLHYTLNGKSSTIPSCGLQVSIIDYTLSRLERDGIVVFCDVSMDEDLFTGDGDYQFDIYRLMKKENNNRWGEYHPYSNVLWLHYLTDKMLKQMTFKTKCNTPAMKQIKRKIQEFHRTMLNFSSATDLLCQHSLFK
Description: (§1) For ERK1 and ERK2, the buffer contained 20 mM HEPES (pH 7.5), 150 mM NaCl and 0.5 mM TCEP. For haspin, the buffer contained 20 mM HEPES (pH 7.5), 250 mM NaCl and 0.5 mM TCEP. Titration was performed at 15 °C by injecting 100 µM protein into a reaction cell containing the inhibitors (7 µM).

[2] = biological target: T2, Mitogen-activated protein kinase 3 (Homo sapiens, UniProt P27361); assay: ITC; conditions: pH 7.5; 15 °C
Description: as §1

Aurora kinase C = biological target: T3, Aurora kinase C (Homo sapiens, UniProt Q9UQB9); assay: Selectivity screening
T3 sequence (Q9UQB9 whole entry): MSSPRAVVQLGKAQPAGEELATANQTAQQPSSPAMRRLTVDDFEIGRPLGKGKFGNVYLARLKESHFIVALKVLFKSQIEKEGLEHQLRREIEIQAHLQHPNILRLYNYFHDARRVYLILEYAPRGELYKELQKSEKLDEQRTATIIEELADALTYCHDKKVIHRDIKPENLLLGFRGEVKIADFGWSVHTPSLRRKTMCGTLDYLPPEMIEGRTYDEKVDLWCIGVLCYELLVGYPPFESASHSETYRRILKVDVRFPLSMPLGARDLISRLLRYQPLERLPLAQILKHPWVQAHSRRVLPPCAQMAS
Description: (§2) The IC50 values of selected kinases were determined using either Z'LYTE, Adapta or LanthaScreen assays.

[3] = biological target: T1, Serine/threonine-protein kinase haspin [465-798]; assay: Selectivity screening
Description: as §2

[4] = biological target: Mitogen-activated protein kinase 10 (Homo sapiens, UniProt P53779); assay: Selectivity screening
Description: as §2

[5] = biological target: T4, Dual specificity protein kinase TTK (Homo sapiens, UniProt P33981); assay: Selectivity screening
T4 sequence (P33981 whole entry): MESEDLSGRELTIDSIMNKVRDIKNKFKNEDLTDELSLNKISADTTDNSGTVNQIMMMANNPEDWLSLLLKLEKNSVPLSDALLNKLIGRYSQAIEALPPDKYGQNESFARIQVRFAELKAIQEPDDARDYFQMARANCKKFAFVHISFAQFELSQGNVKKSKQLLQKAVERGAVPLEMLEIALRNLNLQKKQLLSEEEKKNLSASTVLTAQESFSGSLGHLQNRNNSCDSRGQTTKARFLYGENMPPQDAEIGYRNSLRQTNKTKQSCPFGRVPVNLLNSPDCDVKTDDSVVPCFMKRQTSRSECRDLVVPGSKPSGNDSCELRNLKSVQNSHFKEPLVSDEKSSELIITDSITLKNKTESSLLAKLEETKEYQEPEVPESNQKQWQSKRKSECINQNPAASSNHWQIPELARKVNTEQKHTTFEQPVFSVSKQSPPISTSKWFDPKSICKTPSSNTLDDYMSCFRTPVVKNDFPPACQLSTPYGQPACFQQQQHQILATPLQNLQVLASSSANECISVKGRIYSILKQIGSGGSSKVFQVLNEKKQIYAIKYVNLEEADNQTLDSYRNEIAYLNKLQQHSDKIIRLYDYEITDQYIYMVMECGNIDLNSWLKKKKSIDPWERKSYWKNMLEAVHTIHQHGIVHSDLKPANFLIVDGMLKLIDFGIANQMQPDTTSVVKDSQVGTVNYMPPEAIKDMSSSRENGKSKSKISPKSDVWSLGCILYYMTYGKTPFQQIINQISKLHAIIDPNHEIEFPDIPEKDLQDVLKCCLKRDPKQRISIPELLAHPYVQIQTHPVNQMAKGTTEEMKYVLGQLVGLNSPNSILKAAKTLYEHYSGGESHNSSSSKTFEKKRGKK
Description: as §2

[6] = biological target: Mitogen-activated protein kinase 9 (Homo sapiens, UniProt P45984); assay: Selectivity screening
Description: as §2

[7] = biological target: Mitogen-activated protein kinase kinase kinase kinase 4 (Homo sapiens, UniProt O95819); assay: Selectivity screening
Description: as §2

[8] = biological target: T5, Serine/threonine-protein kinase 17A (Homo sapiens, UniProt Q9UEE5); assay: Selectivity screening
T5 sequence (Q9UEE5 whole entry): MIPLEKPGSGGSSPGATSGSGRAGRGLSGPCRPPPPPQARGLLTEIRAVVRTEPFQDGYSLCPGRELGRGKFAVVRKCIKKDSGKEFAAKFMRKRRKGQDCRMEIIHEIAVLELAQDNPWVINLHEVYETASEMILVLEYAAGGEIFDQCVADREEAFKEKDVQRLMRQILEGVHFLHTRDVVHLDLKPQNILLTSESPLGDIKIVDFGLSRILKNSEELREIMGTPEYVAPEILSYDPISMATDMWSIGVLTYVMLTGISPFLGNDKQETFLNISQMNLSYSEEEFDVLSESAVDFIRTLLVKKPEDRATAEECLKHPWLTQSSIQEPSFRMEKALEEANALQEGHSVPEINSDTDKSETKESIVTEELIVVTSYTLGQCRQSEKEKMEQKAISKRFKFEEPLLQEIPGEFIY
Description: as §2

[9] = biological target: T6, Serine/threonine-protein kinase D1 (Homo sapiens, UniProt Q15139); assay: Selectivity screening
T6 sequence (Q15139 whole entry): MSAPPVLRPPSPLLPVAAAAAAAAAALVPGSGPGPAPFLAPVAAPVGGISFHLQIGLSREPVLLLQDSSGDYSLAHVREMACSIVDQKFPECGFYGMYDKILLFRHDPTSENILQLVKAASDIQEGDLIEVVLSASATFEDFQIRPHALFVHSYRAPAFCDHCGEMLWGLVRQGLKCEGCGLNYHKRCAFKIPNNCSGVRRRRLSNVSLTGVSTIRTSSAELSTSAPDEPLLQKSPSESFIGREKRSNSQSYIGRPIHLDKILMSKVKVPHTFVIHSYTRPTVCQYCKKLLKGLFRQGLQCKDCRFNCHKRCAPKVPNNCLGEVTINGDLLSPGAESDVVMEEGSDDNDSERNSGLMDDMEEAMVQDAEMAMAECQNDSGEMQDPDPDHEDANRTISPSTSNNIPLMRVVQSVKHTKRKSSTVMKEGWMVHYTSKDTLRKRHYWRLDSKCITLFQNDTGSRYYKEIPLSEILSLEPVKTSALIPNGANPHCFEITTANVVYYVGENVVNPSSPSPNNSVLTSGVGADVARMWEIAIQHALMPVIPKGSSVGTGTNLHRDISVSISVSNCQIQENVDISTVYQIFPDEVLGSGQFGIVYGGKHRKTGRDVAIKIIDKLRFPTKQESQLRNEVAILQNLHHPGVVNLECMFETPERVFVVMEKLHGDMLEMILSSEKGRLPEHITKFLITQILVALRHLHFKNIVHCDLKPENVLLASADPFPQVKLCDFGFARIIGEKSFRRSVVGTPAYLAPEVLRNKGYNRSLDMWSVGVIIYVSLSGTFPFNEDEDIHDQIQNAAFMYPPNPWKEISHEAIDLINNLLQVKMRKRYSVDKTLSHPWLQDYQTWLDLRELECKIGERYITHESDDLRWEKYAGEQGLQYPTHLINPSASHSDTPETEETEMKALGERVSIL
Description: as §2

[10] = biological target: Dual specificity protein kinase CLK2 (Homo sapiens, UniProt P49760); assay: Selectivity screening
Description: as §2

[11] = biological target: T7, Mitogen-activated protein kinase 8 [1-363] (Homo sapiens, UniProt P45983); assay: Selectivity screening
T7 construct: 1-363
Description: as §2

Misshapen-like kinase 1 = Misshapen-like kinase 1 (Homo sapiens, UniProt Q8N4C8); assay: Selectivity screening
Description: as §2

[12] = biological target: Casein kinase II subunit alpha' (Homo sapiens, UniProt P19784); assay: Selectivity screening
Description: as §2

[13] = biological target: Dual specificity protein kinase CLK1 (Homo sapiens, UniProt P49759); assay: Selectivity screening
Description: as §2

[14] = biological target: T2, Mitogen-activated protein kinase 3; assay: Selectivity screening
Description: as §2

[15] = biological target: T8, Dual specificity mitogen-activated protein kinase kinase 3 (Homo sapiens, UniProt P46734); assay: Selectivity screening
T8 sequence (P46734 whole entry): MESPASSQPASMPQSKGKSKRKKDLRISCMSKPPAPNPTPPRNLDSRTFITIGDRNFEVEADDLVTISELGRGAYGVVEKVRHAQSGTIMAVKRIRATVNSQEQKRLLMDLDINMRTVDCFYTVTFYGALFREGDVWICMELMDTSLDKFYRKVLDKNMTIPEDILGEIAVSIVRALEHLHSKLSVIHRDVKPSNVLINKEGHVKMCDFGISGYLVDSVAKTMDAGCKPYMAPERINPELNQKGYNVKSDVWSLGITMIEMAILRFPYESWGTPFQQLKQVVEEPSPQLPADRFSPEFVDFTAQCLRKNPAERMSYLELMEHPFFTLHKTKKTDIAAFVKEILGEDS
Description: as §2

T2 sequence (P27361 whole entry): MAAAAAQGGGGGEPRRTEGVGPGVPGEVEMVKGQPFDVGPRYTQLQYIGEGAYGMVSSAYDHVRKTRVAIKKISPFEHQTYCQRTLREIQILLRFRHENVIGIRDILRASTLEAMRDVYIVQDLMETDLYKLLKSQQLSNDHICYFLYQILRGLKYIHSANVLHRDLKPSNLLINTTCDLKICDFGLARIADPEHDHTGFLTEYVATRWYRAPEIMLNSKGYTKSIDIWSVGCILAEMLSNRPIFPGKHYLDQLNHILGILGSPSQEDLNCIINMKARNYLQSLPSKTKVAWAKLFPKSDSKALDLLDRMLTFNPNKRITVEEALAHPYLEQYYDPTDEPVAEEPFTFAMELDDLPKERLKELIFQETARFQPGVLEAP
Casein kinase II subunit alpha', sequence (P19784 whole entry): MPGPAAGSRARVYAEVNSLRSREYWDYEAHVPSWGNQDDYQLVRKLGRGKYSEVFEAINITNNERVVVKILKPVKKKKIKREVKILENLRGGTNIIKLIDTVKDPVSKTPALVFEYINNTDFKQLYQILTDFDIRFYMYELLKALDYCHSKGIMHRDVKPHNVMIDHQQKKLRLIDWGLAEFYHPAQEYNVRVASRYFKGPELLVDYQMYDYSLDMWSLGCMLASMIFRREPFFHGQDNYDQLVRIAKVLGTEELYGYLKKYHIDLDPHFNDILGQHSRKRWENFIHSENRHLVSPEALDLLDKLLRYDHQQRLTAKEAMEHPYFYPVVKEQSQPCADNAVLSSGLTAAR
Misshapen-like kinase 1, sequence (Q8N4C8 whole entry): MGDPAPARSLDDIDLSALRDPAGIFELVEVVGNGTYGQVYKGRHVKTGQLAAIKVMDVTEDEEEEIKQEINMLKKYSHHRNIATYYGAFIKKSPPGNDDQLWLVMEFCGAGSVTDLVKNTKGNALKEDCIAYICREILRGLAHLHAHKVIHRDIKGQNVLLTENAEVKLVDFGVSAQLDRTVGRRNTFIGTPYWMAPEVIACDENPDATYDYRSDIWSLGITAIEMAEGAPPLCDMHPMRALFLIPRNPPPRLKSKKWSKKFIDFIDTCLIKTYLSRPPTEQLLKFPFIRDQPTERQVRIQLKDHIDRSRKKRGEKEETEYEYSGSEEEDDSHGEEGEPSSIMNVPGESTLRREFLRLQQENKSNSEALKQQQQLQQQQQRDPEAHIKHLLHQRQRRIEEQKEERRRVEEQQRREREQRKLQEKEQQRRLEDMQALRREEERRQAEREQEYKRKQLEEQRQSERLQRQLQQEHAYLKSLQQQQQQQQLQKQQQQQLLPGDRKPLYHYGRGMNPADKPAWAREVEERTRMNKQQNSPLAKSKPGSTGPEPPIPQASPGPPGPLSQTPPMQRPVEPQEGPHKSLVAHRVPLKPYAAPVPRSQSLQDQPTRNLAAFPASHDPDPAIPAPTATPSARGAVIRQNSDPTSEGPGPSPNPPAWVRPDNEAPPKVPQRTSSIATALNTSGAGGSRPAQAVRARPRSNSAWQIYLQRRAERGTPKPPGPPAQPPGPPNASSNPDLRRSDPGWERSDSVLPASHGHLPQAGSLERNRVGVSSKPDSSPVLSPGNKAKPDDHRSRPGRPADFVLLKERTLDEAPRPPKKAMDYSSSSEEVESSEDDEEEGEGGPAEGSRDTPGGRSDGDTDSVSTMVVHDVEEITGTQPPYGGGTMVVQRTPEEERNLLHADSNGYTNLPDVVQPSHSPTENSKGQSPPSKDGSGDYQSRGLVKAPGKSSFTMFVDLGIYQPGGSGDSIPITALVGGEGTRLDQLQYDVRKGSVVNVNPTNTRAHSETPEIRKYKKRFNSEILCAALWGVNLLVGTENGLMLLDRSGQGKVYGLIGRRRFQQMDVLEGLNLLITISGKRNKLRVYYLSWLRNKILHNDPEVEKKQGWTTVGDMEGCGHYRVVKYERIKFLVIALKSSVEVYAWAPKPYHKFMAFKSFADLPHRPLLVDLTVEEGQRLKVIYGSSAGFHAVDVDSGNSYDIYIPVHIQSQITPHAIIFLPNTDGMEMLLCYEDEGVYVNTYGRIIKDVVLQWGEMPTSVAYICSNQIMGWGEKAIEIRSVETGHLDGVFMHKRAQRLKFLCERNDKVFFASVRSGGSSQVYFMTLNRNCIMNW
Dual specificity protein kinase CLK1, sequence (P49759 whole entry): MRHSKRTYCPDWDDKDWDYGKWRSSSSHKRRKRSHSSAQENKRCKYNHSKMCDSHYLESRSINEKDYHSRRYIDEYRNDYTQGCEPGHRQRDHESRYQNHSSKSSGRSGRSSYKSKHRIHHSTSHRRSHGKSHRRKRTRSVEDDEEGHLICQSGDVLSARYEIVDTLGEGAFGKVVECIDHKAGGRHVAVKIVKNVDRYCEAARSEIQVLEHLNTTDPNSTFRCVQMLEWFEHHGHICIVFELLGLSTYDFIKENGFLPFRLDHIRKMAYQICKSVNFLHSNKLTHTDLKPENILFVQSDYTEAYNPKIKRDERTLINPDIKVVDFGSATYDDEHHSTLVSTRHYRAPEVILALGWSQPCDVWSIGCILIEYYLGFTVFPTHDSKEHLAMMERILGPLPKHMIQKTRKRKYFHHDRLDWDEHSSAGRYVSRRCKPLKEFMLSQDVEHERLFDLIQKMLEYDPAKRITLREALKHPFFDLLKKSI
Mitogen-activated protein kinase kinase kinase kinase 4, sequence (O95819 whole entry): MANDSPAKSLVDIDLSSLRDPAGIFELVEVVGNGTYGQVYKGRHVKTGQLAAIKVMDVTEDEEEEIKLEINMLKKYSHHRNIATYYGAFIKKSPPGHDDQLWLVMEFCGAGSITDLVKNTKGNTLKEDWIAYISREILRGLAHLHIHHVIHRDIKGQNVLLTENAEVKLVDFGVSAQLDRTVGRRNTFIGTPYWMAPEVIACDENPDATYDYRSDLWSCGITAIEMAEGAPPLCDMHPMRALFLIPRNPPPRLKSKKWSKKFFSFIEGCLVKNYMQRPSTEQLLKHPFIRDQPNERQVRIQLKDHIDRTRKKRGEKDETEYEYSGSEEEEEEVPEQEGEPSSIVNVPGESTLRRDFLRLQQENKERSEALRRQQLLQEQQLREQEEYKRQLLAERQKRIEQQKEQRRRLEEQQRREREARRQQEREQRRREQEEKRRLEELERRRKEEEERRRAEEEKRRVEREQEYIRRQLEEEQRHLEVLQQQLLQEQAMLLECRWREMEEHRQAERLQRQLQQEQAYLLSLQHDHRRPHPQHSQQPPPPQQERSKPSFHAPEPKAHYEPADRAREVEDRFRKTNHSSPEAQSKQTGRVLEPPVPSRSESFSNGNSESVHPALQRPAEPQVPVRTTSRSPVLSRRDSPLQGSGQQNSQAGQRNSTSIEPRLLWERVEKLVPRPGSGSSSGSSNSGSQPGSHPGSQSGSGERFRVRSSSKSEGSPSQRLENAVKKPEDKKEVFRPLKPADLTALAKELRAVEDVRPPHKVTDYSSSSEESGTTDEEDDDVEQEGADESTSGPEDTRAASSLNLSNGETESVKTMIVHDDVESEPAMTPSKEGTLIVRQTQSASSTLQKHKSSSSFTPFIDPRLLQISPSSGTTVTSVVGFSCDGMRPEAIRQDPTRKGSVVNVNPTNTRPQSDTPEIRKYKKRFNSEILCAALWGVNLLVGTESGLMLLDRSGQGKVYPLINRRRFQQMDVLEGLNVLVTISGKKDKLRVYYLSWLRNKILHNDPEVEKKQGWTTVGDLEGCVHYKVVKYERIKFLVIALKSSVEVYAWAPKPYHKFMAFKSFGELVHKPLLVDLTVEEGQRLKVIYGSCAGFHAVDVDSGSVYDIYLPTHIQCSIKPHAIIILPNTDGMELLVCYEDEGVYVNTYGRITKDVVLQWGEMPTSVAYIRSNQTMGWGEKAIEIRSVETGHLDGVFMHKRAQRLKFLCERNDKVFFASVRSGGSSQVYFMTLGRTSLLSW
T7 sequence (P45983 1-363): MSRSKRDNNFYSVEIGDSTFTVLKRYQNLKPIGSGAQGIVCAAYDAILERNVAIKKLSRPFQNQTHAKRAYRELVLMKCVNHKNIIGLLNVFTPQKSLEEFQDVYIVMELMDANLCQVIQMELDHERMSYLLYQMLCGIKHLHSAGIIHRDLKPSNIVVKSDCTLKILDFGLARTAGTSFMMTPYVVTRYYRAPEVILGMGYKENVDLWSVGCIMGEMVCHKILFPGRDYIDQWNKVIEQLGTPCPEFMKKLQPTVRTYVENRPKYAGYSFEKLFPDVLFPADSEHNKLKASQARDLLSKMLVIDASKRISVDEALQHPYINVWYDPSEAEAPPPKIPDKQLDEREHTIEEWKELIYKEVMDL
Dual specificity protein kinase CLK2, sequence (P49760 whole entry): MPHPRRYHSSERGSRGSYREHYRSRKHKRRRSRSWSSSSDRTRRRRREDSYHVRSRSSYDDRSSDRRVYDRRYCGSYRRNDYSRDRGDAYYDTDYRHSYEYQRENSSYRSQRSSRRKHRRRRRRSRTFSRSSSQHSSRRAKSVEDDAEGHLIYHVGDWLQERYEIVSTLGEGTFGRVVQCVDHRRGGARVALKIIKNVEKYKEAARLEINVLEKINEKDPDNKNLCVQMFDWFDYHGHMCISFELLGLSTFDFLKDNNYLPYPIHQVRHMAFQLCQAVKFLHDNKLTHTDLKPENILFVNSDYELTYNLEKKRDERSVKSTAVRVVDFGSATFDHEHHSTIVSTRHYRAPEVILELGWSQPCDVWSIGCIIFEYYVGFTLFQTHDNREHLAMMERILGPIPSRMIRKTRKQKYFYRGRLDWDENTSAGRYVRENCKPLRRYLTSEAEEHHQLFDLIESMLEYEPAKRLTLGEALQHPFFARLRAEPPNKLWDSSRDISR

Kd [1]: 297 nM
Kd [2]: 213 nM
IC50 (Aurora kinase C): 580 nM
IC50 [3]: 398 nM
IC50 [4]: 632 nM
IC50 [5]: 193 nM
IC50 [6]: 783 nM
IC50 [7]: 503 nM
IC50 [8]: 114 nM
IC50 [9]: 535 nM
IC50 [10]: 104 nM
IC50 [11]: 1080 nM
IC50 (Misshapen-like kinase 1): 942 nM
IC50 [12]: > 10000 nM
IC50 [13]: 508 nM
IC50 [14]: 8.3 nM
IC50 [15]: 304 nM
Structure (SMILES): O=C(Nc1ccc2[nH]nc(-c3ccncc3)c2c1)[C@H]1CCN(CC(=O)N2CCN(c3ccc(-c4ncccn4)cc3)CC2)C1 [SCH772984]
